Reference: patent publication US20220073536A1 (Rigel Pharmaceuticals, Inc., priority 2003, published 2022)
Read-outs that look alike come from different tables or passages of the source.

Columns and labels:
[1] = test system: cultured human mast cells (CHMC); experiment: CHMC low cell density IgE activation: tryptase assay; assay type: cell-based; conditions: IgE activation
Procedure, shortened: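 Low-density CHMC, 1000-1500 cells/well in MT; 1 hr 37 °C; anti-IgE challenge 30 min 37 °C; supernatant tryptase via fluorogenic substrate, 30 min RT.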

Syk kinase = target: T1, Syk kinase (Homo sapiens, UniProt P43405); experiment: Syk kinase biochemical fluorescence polarization assay; conditions: read-out: fp_syk, 11 pt
T1 construct: purchased Upstate, Lake Placid N.Y
Method: Many of the 2,4-pyrimidinediamine compounds were tested for the ability to inhibit Syk kinase catalyzed phosphorylation of a peptide substrate in a biochemical fluorescenced polarization assay with isolated Syk kinase. In this experiment, Compounds were diluted to 1% DMSO in kinase buffer (20 mM HEPES, pH 7.4, 5 mM MgCl2, 2 mM MnCl2, 1 mM DTT, 0.1 mg/mL acetylated Bovine Gamma Globulin). Compound in 1% DMSO (0.2% DMSO final) was mixed with ATP/substrate solution at room temperature. Syk kinase (Upstate, Lake Placid N.Y.) was added to a final reaction volume of 20 uL, and the reaction was incubated for 30 minutes at room temperature. […] EDTA (10 mM final)/anti-phosphotyrosine antibody (1× final)/fluorescent phosphopeptide tracer (0.5× final) was added in FP Dilution Buffer to stop the reaction for a total volume of 40 uL according to manufacturer's instructions (PanVera Corporation) The plate was incubated for 30 minutes in the dark at room temperature. Plates were read on a Polarion fluorescence polarization plate reader (Tecan). Data were converted to amount of phosphopeptide present using a calibration curve generated by competition with the phosphopeptide competitor provided in the Tyrosine Kinase Assay Kit, Green (PanVera Corporation).

[2] = test system: cultured human mast cells (CHMC); experiment: CHMC low cell density ionomycin activation: tryptase assay; assay type: cell-based; conditions: read-out: LD Tryptase, CHMC, Iono, 3 pt
[3] = Homo sapiens, Mast cell, low cell density CHMC, tryptase, 3 pt, read-out: LD Tryptase, CHMC, IgE, 3 pt
[4] = Homo sapiens, Mast cell, low cell density CHMC, tryptase, 8 pt, read-out: LD Tryptase, CHMC, IgE, 8 pt
[5] = low cell density, 3 pt, read-out: LD Tryptase, CHMC, IgE, 3 pt
[6] = low cell density, 8 pt, read-out: LD Tryptase, CHMC, IgE, 8 pt
[7] = Homo sapiens, Mast cell, low cell density CHMC, tryptase release, 8 pt, read-out: LD Tryptase, CHMC, IgE, 8 pt
[8] = low cell density CHMC, tryptase, 3 pt, read-out: LD Tryptase, CHMC, IgE, 3 pt
[9] = low cell density CHMC, tryptase, 8 pt, read-out: LD Tryptase, CHMC, IgE, 8 pt
[10] = low cell density CHMC, tryptase, 3 pt

`CNC(=O)c1cc2cccc(Nc3ncc(F)c(Nc4cc(OC)cc(OC)c4)n3)c2[nH]1` [Compound 368, N4-(3,5-Dimethoxyphenyl)-5-fluoro-N2-[2-(N-methylamino)carbonylindol-7-yl]-2,4-pyrimidinediamine] showed an IC50 [1, 3] of less than 10 µM and an IC50 (Syk kinase; isolated Syk kinase, 11 pt) of less than 10 µM.

For `COc1cc(Nc2nc(Nc3cccc4cc(C(=O)N(C)CCO)[nH]c34)ncc2F)cc(OC)c1` [Compound 384], the IC50 [1, 3] was less than 10 µM, the IC50 [1, 4] was less than 10 µM and the IC50 (Syk kinase; isolated Syk kinase, 11 pt) was less than 10 µM.

`COc1ccc(Nc2nc(Nc3cccc(-c4nnc(C(C)(C)C)o4)c3)ncc2F)cc1OC` [Compound 530, N2-[ (2-tert-Butyl-1,3,4-oxadiazol-5-yl)phenyl]-N4-(3,4-dimethoxyphenyl)-5-fluoro-2,4-pyrimidinediamine] was tested, and the IC50 [1, 5] was less than 10 µM, the IC50 [1, 6] was less than 10 µM and the IC50 (Syk kinase; 11 pt) was less than 10 µM.

With `CNC(=O)COc1ccc(Nc2nc(Nc3ccc4c(ccn4CC(=O)NC)c3)ncc2F)cc1Cl` [Compound 652, N4-[3-Chloro-4-(N-methylamino)carbonylmethyleneoxyphenyl]-5-fluoro-N2-[1-(N-methylamino)carbonylmethyleneindol-5-yl]-2,4-pyrimidinediamine] the IC50 ([1]; Homo sapiens, Mast cell, low cell density CHMC, tryptase release, 8 point, read-out: LD Tryptase, CHMC, IgE, 8 pt) was less than 10 µM and the IC50 (Syk kinase; isolated Syk kinase, 11 point) was less than 10 µM.

Molecule `COc1ccc(Nc2nc(Nc3ccc4c(c3)c(N)nn4C)ncc2F)cc1Cl` [Compound 804, N2-(3-Amino-1-methylindazol-5-yl)-N4-(3-chloro-4-methoxyphenyl)-5-fluoro-2,4-pyrimidinediamine] has an IC50 [1, 7] of less than 10 µM and an IC50 (Syk kinase; isolated Syk kinase, 11 pt) of less than 10 µM.

For `C[C@@H]1Oc2ccc(Nc3nc(Nc4ccc5c(c4)c(N)nn5C)ncc3F)cc2NC1=O` [Compound 807, (S)-N2-(3-Amino-1-methylindazol-5-yl)-5-fluoro-N4-(2-methyl-3-oxo-4H-benz[1,4]oxazin-6-yl)-2,4-pyrimidinediamine], the IC50 [1, 7] was less than 10 µM and the IC50 (Syk kinase; isolated Syk kinase, 11 pt) was less than 10 µM.

In the case of `COc1ccc(Nc2nc(Nc3ccc4c(cnn4CCCNC(C)=O)c3)ncc2F)cc1Cl` [Compound 819, N2-[1-[3-(N-Acetylamino)propyl]indazol-5-yl]-N4-(3-chloro-4-methoxyphenyl)-5-fluoro-2,4-pyrimidinediamine], the IC50 [1, 7] is reported as less than 10 µM and the IC50 (Syk kinase; isolated Syk kinase, 11 pt) is reported as less than 10 µM.

`Cn1c(N2CCOCC2)nc2cc(Nc3ncc(F)c(Nc4ccc(Cl)c(Cl)c4)n3)ccc21` [Compound 942, N4-(3,4-Dichlorophenyl)-5-fluoro-N2-[1-methyl-2-(4-morpholino)benzimidazol-5-yl]-2,4-pyrimidinediamine] was tested, and the IC50 [1, 5] was less than 10 µM, the IC50 [1, 6] was less than 10 µM and the IC50 (Syk kinase; 11 pt) was less than 10 µM.

For `COc1ccc(Nc2nc(Nc3ccc4c(c3)nc(N3CCOCC3)n4C)ncc2F)cc1Cl` [Compound 943, N4-(3-Chloro-4-methoxyphenyl)-5-fluoro-N2-[1-methyl-2-(4-morpholino)benzimidazol-5-yl]-2,4-pyrimidinediamine], the IC50 ([1]; Homo sapiens, Mast cell, low cell density, 3 pt, read-out: LD Tryptase, CHMC, IgE, 3 pt) was less than 10 µM and the IC50 (Syk kinase; 11 pt) was less than 10 µM.

With `Fc1cnc(Nc2ccc3[nH]c(N4CCOCC4)nc3c2)nc1Nc1ccc(Cl)c(Cl)c1` [Compound 975, N4-(3,4-Dichlorophenyl)-5-fluoro-N2-[2-(4-morpholino)-1H-benzimidazol-5-yl]-2,4-pyrimidinediamine] the IC50 ([1]; Homo sapiens, Mast cell, low cell density, 8 pt, read-out: LD Tryptase, CHMC, IgE, 8 pt) was less than 10 µM and the IC50 (Syk kinase; 11 pt) was less than 10 µM.

Work on `CN1CCN(c2ccc(Nc3ncc(F)c(NC4CCCCC4)n3)cc2Cl)CC1` [Compound 1191, N2-[3-Chloro-4-(4-methylpiperazino)phenyl]-N4-cyclohexyl-5-fluoro-2,4-pyrimidinediamine] yielded an IC50 [1, 3] of less than 10 µM and an IC50 (Syk kinase; isolated Syk kinase, 11 pt) of less than 10 µM.

`Nc1nc(Nc2nc(Nc3ccc4cn[nH]c4c3)ncc2F)n[nH]1` [Compound 1255] was tested, and the IC50 [1, 4] was less than 10 µM and the IC50 (Syk kinase; isolated Syk kinase, 11 pt) was less than 10 µM.

Molecule `CC(C)(C)OC(=O)NCC(=O)NCc1ccc(Nc2ncc(F)c(Nc3ccc4c(c3)NC(=O)C(C)(C)O4)n2)cc1` [Compound 1307, N2-[4-[1-(tert-Butoxycarbonylamino)methylenecarbonylamino]methylphenyl]-N4-(2,2-dimethyl-3-oxo-4H-benz[1,4]oxazin-6-yl)-5-fluoro-2,4-pyrimidinediamine] has an IC50 [1, 8] of less than 10 µM, an IC50 [1, 9] of less than 10 µM and an IC50 [2, 10] of less than 10 µM.

`C[C@@H]1Oc2ccc(Nc3nc(Nc4ccc(CNC(=O)CNC(=O)OC(C)(C)C)cc4)ncc3F)cc2NC1=O` [Compound 1308, (S)-N2-[4-[1-(tert-Butoxycarbonylamino)methylenecarbonylamino]methylphenyl]-5-fluoro-N4-(2-methyl-3-oxo-2H,4H-benz[1,4]oxazin-6-yl)-2,4-pyrimidinediamine] gave an IC50 [1, 8] of less than 10 µM, an IC50 [1, 9] of less than 10 µM and an IC50 [2, 10] of less than 10 µM.

With `CC(C)(C)OC(=O)NCC(=O)NCc1ccc(Nc2ncc(F)c(Nc3ccc4c(c3)NC(=O)C(F)(F)O4)n2)cc1` [Compound 1309, N2-[4-[1-(tert-Butoxycarbonylamino)methylenecarbonylamino]methylphenyl]-N4-(2,2-difluoro-3-oxo-4H-benz[1,4]oxazin-6-yl)-5-fluoro-2,4-pyrimidinediamine] the IC50 [1, 8] was less than 10 µM, the IC50 [1, 9] was less than 10 µM and the IC50 [2, 10] was greater than 10 µM.

`CC(C)(C)OC(=O)NCC(=O)NCc1ccc(Nc2ncc(F)c(Nc3ccc(Cl)c(Cl)c3)n2)cc1` [Compound 1310, N2-[4-[1-(tert-Butoxycarbonylamino)methylenecarbonylamino]methylphenyl]-N4-(3,4-dichlorophenyl)-5-fluoro-2,4-pyrimidinediamine] showed an IC50 [1, 8] of less than 10 µM, an IC50 [1, 9] of less than 10 µM and an IC50 [2, 10] of less than 10 µM.

Work on `CCN(CC)CCNC(=O)c1ccc(Nc2ncc(F)c(Nc3ccc(OC)c(Cl)c3)n2)cc1` [Compound 1320, N4-(3-Chloro-4-methoxyphenyl)-5-fluoro-N2-(4-[2-[N,N-diethylamino]ethyleneaminocarbonyl]phenyl)-2,4-pyrimidinediamine] yielded an IC50 [1, 4] of less than 10 µM and an IC50 (Syk kinase; isolated Syk kinase, 11 pt) of less than 10 µM.

For “(R)-5-Fluoro-N2-[4- (N-methoxycarbonylmethyleneamino)carbonylphenyl]-N4- (2-methyl-3-oxo-2H,4H-benz[1,4]oxazin-6-yl)-2,4-pyrimidinediamine [Compound 1272]”, the IC50 [1, 9] was less than 10 µM and the IC50 [2, 10] was greater than 10 µM.

“(S)-5-Fluoro-N2-[4- (N-methoxycarbonylmethyleneamino)carbonylphenyl]-N4- (2-methyl-3-oxo-2H,4H-benz[1,4]oxazin-6-yl)-2,4-pyrimidinediamine [Compound 1271]” gave an IC50 [1, 9] of less than 10 µM and an IC50 [2, 10] greater than 10 µM.

Molecule “N2- (3-Chloro-4-methoxyphenyl)-N4- (2,2-dimethyl-3-oxo-4H-benz[1,4]oxazin-6-yl)-5-fluoro-N4-methyl-2,4-pyrimidinediamine [Compound 394]” has an IC50 [1, 8] of less than 10 µM and an IC50 [2, 10] of less than 10 µM.

“N2- (Bis-2-hydroxyethyl)-N4- (3,4-ethylenedioxyphenyl)-5-fluoro-N4-methyl-2,4-pyrimidinediamine [Compound 492]” showed an IC50 [1, 5] greater than 10 µM and an IC50 ([2]; low cell density, 3 pt) greater than 10 µM.

“N2-[4-[1- (tert-Butoxycarbonylamino)methylenecarbonylamino]methylphenyl]-N4- (3,4-dichlorophenyl)-5-fluoro-N4-methyl-2,4-pyrimidinediamine [Compound 1311]” was tested, and the IC50 [1, 8] was less than 10 µM and the IC50 [2, 10] was greater than 10 µM.

Work on “N4- (2,2-Difluoro-3-oxo-4H-benz[1,4]oxazin-6-yl)-5-fluoro-N2-[4-[N- (N-methylamino)carbonylmethylene]aminocarbonylphenyl]-2,4-pyrimidinediamine [Compound 1297]” yielded an IC50 [1, 8] of less than 10 µM and an IC50 [2, 10] greater than 10 µM.

Work on “N4- (2,2-Dimethyl-3-oxo-4H-benz[1,4]oxazin-6-yl)-5-fluoro-N2-(1-methylindazol-6-yl)-2,4-pyrimidinediamine p-Hydroxybenzenesulfonic Acid Salt [Compound 768]” yielded an IC50 [1, 8] of less than 10 µM, an IC50 [1, 9] of less than 10 µM and an IC50 [2, 10] greater than 10 µM.

Molecule “N4- (4-Chloro-3-methoxyphenyl)-5-fluoro-N2-[1-(methoxycarbonylmethylene)indol-5-yl]-2,4-pyrimidinediamine [Compound 645]” has an IC50 ([1]; low cell density CHMC, tryptase release, 3 point, read-out: LD Tryptase, CHMC, IgE, 3 pt) of less than 10 µM, an IC50 ([1]; low cell density CHMC, tryptase release, 8 point, read-out: LD Tryptase, CHMC, IgE, 8 pt) of less than 10 µM and an IC50 ([2]; low cell density CHMC, tryptase release, 3 point) greater than 10 µM.
